Experiments:
[1] = Carboxy-fluorescein efflux from PE/PG liposomes; format: biochemical; conditions: 2.5 μM, after 90 minutes
Experimental: Liptin 3e causes membrane leakage when it binds to PG in a membrane, as evidenced by the efflux of fluorescent carboxy-fluorescein from model lipid vesicles of 80% PE/20% PG (the approximate lipid content models E. coli's plasma membrane), shown in FIG. 19A. […] Not shown is the effect of the bee AMP melittin, which forms pores in membranes at 2.5 μM concentrations. Upon addition of melittin within a few minutes of addition the efflux is 100%.
Liptins 3f-h also cause membrane leakage when they bind to PG in a membrane, as evidenced by the efflux of fluorescent carboxy-fluorescein from model lipid vesicles of 80% PE/20% PG (the lipid content models E. coli's plasma membrane), shown in FIG. 19B. The circle bottom line data set is the control without liptin. […] Y-axis: % Efflux; X-axis: Time in minutes.
This greater efflux activity may well translate to lower MICs of these two compounds relative to liptin 3e, and may well change the liptin activity from bacteriostatic to bactericidal. […]

[2] = Water solubility; format: physicochemical; conditions: TFA counterions
Excerpt: Route 1 involves reductive amination of the uncharged glycine picket with an aldehyde. Route 2 involves amidation of the meso-phenylamines via addition of chloroacetyl chloride followed by the SN2 addition of amines to the resultant alkyl chloride (examples of alkyl, polyether, or benzyl amines are shown in Scheme 1). Route 2 is capable of furnishing a more diverse set of pickets, and modeling has shown that the use of the aryl amines shown in Scheme 1 would position their phenolic OH groups to allow for hydrogen bonding with the lipid's fatty acid ester groups. At the present time, porphyrins 3f-h have been furnished using Route 2. Route 3 involves the transformation of the meso-phenylamines into phenylisocyanates, followed by the addition of a substituted hydrazine (prepared from an aldehyde and hydrazine to form the hydrazone followed by reductive amination or with commercially available hydrazines) to furnish a semicarbazide group whose nitrogen can be charged (FIG. 6). The urea portion of the semicarbazide would provide additional strong hydrogen-bonding sites for the glycerol hydroxyl groups.

[3] = test system: E. coli BL 21 (Tuner pLysS); assay: Tetracycline-induced YqhD expression, gel electrophoresis; format: cell-based; conditions: 10 μM
[4] = test system: E. Coli (JMR 223-MC4100); assay: MIC in LB culture; format: cell-based; conditions: overnight 37° C.
Experimental: An E. Coli (JMR 223-MC4100) plate was grown up overnight in LB agar at 37° C. A good colony was selected and added to 5 mL LB growth media. This was incubated at 37° C. with shaking at 250 rpm until the solution reaches an OD of at least 0.5 or higher at 600 nm. A final solution was diluted 500× to an OD of 0.001, correlating to a CFU of 1×10^6. 5 ml solutions of the diluted bacterial broth were measured out. Liptins were added to make solutions of 20 μM, 15 μM, 10 μM, 5 μM, 4 μM, 3 μM, 2 μM, and 1 μM (This means adding 0.2 mL, 0.15 mL, 0.1 mL, 0.05 mL, 0.04 mL, 0.03 mL, 0.02 mL, 0.01 mL of the 500 μM solution). Cultures were allowed to incubate overnight at 37° C. with shaking at 250 rpm. The following day, cultures were analyzed to evaluate the presence or absence of bacterial growth by spectrophotometry at 600 nm (0.66 mg of liptin in 0.95 mL of water; 0.15 OD Diluted 150× to OD of 0.001). […] Growth was not observed in the 2 μM and up solutions. See FIGS. 11A-11B for a visual image of the E. coli cultures.

[5] = test system: Gram-positive, Gram-negative, and Mycobacteria; assay: Growth curves in BHI culture with liptin 3e; format: cell-based
Excerpt: Growth curves were generated from liquid shake-flask cultures using absorbance measurements at 600 nm at different concentrations of liptin 3e. Uninoculated control flasks were used as blanks. Absorbance values of 0.1 OD unit was considered reasonable threshold for positive growth. […] Liptin exposure appears to stop bacterial growth, as evidenced by long lag phases, which increase with liptin concentration. In most cases, cultures recover, but growth rates and maximum cell densities are decreased with liptin treatment.
Bacterial growth rates were reduced by liptin 3e treatment in a concentration-dependent manner. Rates were determined as the slope of the log phase of the growth curve, after the lag phase. An exponential relationship exists with marginally significant differences (p<0.1).
Maximum culture densities represent the carrying capacity of a culture flask.

[6] = test system: E. feucalis (29213); assay: Serial passage resistance experiment; format: cell-based; conditions: 0.5 MIC, LB, 37° C., 80-100 generations
Excerpt: (§1) Triplicate serial passage experiments were undertaken with E. coli (MC4100), S. aureus (33186) and E. feucalis (29213).

[7] = test system: S. aureus (33186); assay: Serial passage resistance experiment; format: cell-based; conditions: 0.5 MIC, LB, 37° C., 80-100 generations
Excerpt: as §1

[8] = test system: E. coli (MC4100); assay: Bactericidal (MBC) experiment, LB plates; format: cell-based; conditions: overnight culture then LB plate 16 hours
Experimental: (§2) Cultures (5 mL) starting at 0.001 OD were grown overnight at 37° C. with different concentrations of […], and then a sample of culture was added to an LB plate and then it was incubated for 16 hours at 37° C. […] All experiments were done in triplicate, including control.

[9] = test system: E. feucalis (29213); assay: Bactericidal (MBC) experiment, LB plates; format: cell-based; conditions: overnight culture then LB plate 16 hours
Experimental: as §2

[10] = test system: S. aureus (33186); assay: Bactericidal (MBC) experiment, LB plates; format: cell-based; conditions: 5 μM, overnight culture then LB plate 16 hours
Experimental: as §2

[11] = Liptin-PG binding in solution (ITC and/or 1H NMR titration); conditions: ITC; 50% DMSO, 45% CHCl3, 5% CH3OH
Experimental: The lipid binding ability of liptins 1-3 (FIG. 2A) have been investigated in solution using isothermal titration calorimetry (ITC) and/or ^1H NMR. Stoichiometry of binding was accomplished with Job plots using ^1H NMR. […] The use of organic solvents allowed the determination of binding motif using ^1H NMR.
Liptins 1b, 1e, 2c, 2d, 3a, 3c in DMF/5% CHCl3; 3e in 50% DMSO, 45% CHCl3, 5% CH3OH.
Liptins 1h and 1i 40% DMSO, 60% CHCl3, 3f in 20% DMSO, 80% CHCl3.

[12] = E. coli and S. aureus, concentration-dependent

## NCC(=O)Nc1ccccc1-c1c2nc(c(-c3ccccc3NC(=O)CN)c3ccc([nH]3)c(-c3ccccc3NC(=O)CN)c3nc(c(-c4ccccc4NC(=O)CN)c4ccc1[nH]4)C=C3)C=C2.O=C(O)C(F)(F)F.O=C(O)C(F)(F)F.O=C(O)C(F)(F)F.O=C(O)C(F)(F)F [Liptin 3e]
[1]
  dye leakage (efflux): 5-10%
[2]
  water solubility: quite water soluble
[3]
  protein synthesis: most protein synthesis was effectively disrupted
[4]
  MIC: 1 to 2 µM
[5]; [12]
  bacterial growth rates: reduces bacterial growth rates
  maximum culture density: decreases maximum culture density
[5]; one inoculation, BHI
  antibacterial activity from growth curves: highly bacteriostatic activity
[6]
  MIC after 15 serial passages: no different than initial MICs
[7]
  MIC after 15 serial passages: no different than initial MICs
[8]
  MBC (concentration with low or no growth on LB plates): much more than four times the MIC concentrations
[9]
  MBC (concentration with low or no growth on LB plates): much more than four times the MIC concentrations
[10]
  bactericidal effect: strong bactericidal effects
[11]
  Ka: 2800 M⁻¹

Source: US10668048B2, “Compounds for inhibiting bacterial growth via phosphatidylglycerol binding” (Wichita State University, priority 2016, dated 2020)
